We go through eight compounds from ChEMBL document CHEMBL1136876, “On the inhibition of HIV-1 protease by hydrazino-ureas displaying the N-->C=O interaction” (Bioorg Med Chem, 2009).

Experiment [1] deals with T1, Protease (Human immunodeficiency virus 1, UniProt Q9YQ12). The experiment in a line: Inhibition of HIV1 protease by FRET assay.
The target in experiment [2] is T1, Protease. Briefly: Inhibition of HIV1 protease by Lineweaver-Burke method.
For experiment [3], the target named is T1, Protease. The experiment in a line: Inhibition of HIV1 protease by Hanes method.
Experiment [4] addresses T1, Protease. Briefly: Inhibition of HIV1 protease by Dixon method.

Each structure is given as a SMILES string. A value given as a limit tells only on which side of the number the result lay.

T1 sequence (Q9YQ12 whole entry): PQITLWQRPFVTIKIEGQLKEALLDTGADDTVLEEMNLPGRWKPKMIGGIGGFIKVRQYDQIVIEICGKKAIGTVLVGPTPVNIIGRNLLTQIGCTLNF

Usually IC50 stands for the point on the concentration scale where inhibition reaches its midpoint. Low readings indicate greater potency in that assay, high ones weaker potency in that assay. Consider `C=CCOC(=O)N[C@]1(Cc2ccccc2)CC[N+]2(CCC[C@H]2C(=O)OC)C1[O-]` (some centres undefined), for which, at Protease [1], the IC50 was more than 1000 µM.
What is called Ki is the equilibrium dissociation constant of an inhibitor or competing ligand from its target. Read a high Ki as weaker binding. In turn, `CC(C)[C@H](N)C(=O)N[C@]1(Cc2ccccc2)CC[N+]2(CCC[C@H]2C(=O)NC(=O)[C@@H](NC(C)(C)C)C(C)C)C1[O-]` (some centres undefined) showed an IC50 on Protease [1] of 204 µM. For the same compound, the Ki was found to be 99 µM on Protease [2], 96 µM at Protease [3] and 96 µM on Protease [4].
`O=C1N[C@@H](Cc2ccccc2)C([O-])[N+]2(CCCCC2)N1Cc1ccccc1` (some centres undefined): the half-maximal inhibitory concentration (IC50) against Protease [1] was 37.2 µM. The values for the inhibition constant (Ki) at Protease [2], at Protease [3] and at Protease [4] were 26.2 µM, 26.2 µM and 34.8 µM, respectively.
At Protease [1], `O=C1N[C@H](Cc2ccccc2)C([O-])[N+]2(CCCCC2)N1Cc1ccccc1` (some centres undefined) displayed an IC50 of 543 µM. For the same compound, the Ki was 461 µM on Protease [2], 461 µM at Protease [3] and 454 µM on Protease [4].
As for `CC(C)(C)NC(=O)[C@@H]1CCC[N+]12C([O-])[C@H](Cc1ccccc1)NC(=O)N2Cc1ccccc1` (some centres undefined), the IC50 at Protease [1] is 44.5 µM. The inhibitory constant (Ki) on Protease [2] turned out to be 34.3 µM; on Protease [3], 34.3 µM; at Protease [4], 43.9 µM.
With `CC[C@H](C)[C@H](NC(=O)[C@@H](NC(C)(C)C)C(C)C)C(=O)NC(=O)[C@@H]1CCC[N+]12C([O-])[C@H](Cc1ccccc1)NC(=O)N2Cc1ccccc1` (some centres undefined), the IC50 against Protease [1] came to 169 µM. Besides, the figures for the inhibition constant (Ki) on Protease [2], on Protease [3] and on Protease [4] were 149 µM, 149 µM and 138 µM, respectively.
As to `CC(C)[C@H](N)C(=O)N[C@]1(Cc2ccccc2)CC[N+]2(CCC[C@H]2C(=O)NC(C)(C)C)C1[O-]` (some centres undefined), 545 µM corresponded to half-maximal inhibition against Protease [1] (IC50). Further, the inhibition constant Ki at Protease [2] stood at 574 µM; on Protease [3] it was 618 µM; on Protease [4], 577 µM.
`CC(C)[C@H](NC(C)(C)C)C(=O)NC(=O)[C@@H]1CCC[N+]12C([O-])[C@H](Cc1ccccc1)NC(=O)N2Cc1ccccc1` (some centres undefined) registered a half-inhibitory concentration (IC50) on Protease [1] of 341 µM. Moreover, the inhibitory constant (Ki) on Protease [2] amounted to 292 µM; on Protease [3], 292 µM; at Protease [4], 286 µM.
